Patent US20230039086A1, “BMS-986165 CRYSTAL FORM, PREPARATION METHOD THEREFOR AND USE THEREOF” (CRYSTAL PHARMACEUTICAL (SUZHOU) CO., LTD., priority 2019, published 2023)
Entries after “also recorded” stand apart in the source; their conditions may differ.

How the values were obtained:
[1] = Storage stability at 25 °C/60% RH and 40 °C/75% RH, crystalline form by XRPD and chemical purity by HPLC; assay type: physicochemical; conditions: for Crystalline form after storage: XRPD; for Purity: HPLC
Experimental: Approximately 5 mg of Form CSI in the present disclosure was stored under different conditions of 25° C./60% RH and 40° C./75% RH. Crystalline form and chemical purity were checked by XRPD and HPLC, respectively.
Approximately 5 mg of Form CSII in the present disclosure was stored under different conditions of 25° C./60% RH and 40° C./75% RH. Crystalline form and chemical purity were checked by XRPD and HPLC, respectively.

[2] = Physical stability on manual grinding, XRPD before and after; assay type: physicochemical; conditions: ground manually for 5 minutes in a mortar
Experimental: Form CSII was grounded manually for 5 minutes in a mortar. Crystalline form before and after grinding were checked by XRPD.

[3] = Compressibility (ENERPAC manual tablet press, tablet hardness and tensile strength); assay type: physicochemical; conditions: 80 mg, φ6 mm round tooling, 10 KN; for Diameter / Hardness / Thickness: after 24 h at room temperature; for Tensile strength: calculated T=2H/πDL*9.8
Experimental: (§1) ENERPAC manual tablet press was used for compression. 80 mg of Form CSI and Form A were weighed and added into the dies of a φ6 mm round tooling, compressed at 10 KN manually, then stored at room temperature for 24 h until complete elastic recovery. Hardness (H) was tested with an intelligent tablet hardness tester. Diameter (D) and thickness (L) were tested with caliper. Tensile strength of the powder was calculated with the following formula: T=2H/πDL*9.8. Under a certain force, the greater the tensile strength, the better the compressibility.
as §1, with “CSII” for “CSI”

[4] = Adhesiveness (material sticking to the punch during compression); assay type: physicochemical; conditions: for Adhesiveness (in words): compared with Form A where a comparison is stated
Experimental: Approximately 30 mg of Form CSII and Form A were weighed and then added into the dies of φ8 mm round tooling, compressed at 10 kN and held for 30 s. The material sticking to the punch was recorded. The compression was repeated twice and the cumulative amount, maximum amount and average amount of material sticking to the punch during the compression were recorded.

[5] = Physical stability under pressure (tableting), XRPD before and after; assay type: physicochemical
Text: A certain amount of Form CSI was compressed into tablets under 3 kN, 7 kN and 14 kN with suitable tableting die. Crystalline forms before and after tableting were checked by XRPD.
A certain amount of Form CSII was compressed into tablets under 5 kN, 10 kN and 20 kN with suitable tableting die. Crystalline forms before and after tableting were checked by XRPD.

[6] = systemic lupus erythematosus and Crohn's disease; cited from earlier work
[7] = phase III clinical study results announced in November 2020, moderate to severe plaque psoriasis; cited from earlier work
[8] = Thermodynamic stability: suspension of Form A plus Form CSI stirred at 5 °C, solid checked by XRPD; assay type: physicochemical
Experimental: A certain amount of Form A was weighed into glass vail and 0.3 mL of solvent mixtures of water and acetonitrile, water and methanol, or water and acetone according to table 8 were added to form suspensions. Approximately 6 mg of Form CSI of the present disclosure was added in the suspension. After mixing at 5° C. for 5 minutes, a portion of the solid was taken out and tested by XRPD. After the suspension was stirred at 5° C. for 6 days, a portion of the solid was taken out and tested by XRPD again.

[9] = 25 °C/60% RH, open and sealed, 6 months
[10] = 25 °C/60% RH, sealed (closed), 6 months
[11] = 40 °C/75% RH, open and sealed, 6 months
[12] = 40 °C/75% RH, sealed (closed), 6 months
[13] = about 30 mg, φ8 mm round tooling, 10 kN held for 30 s

Row | Structure (SMILES) | Time for which the crystalline form is stable (does not change) ([1]; 25 °C/60% RH, open and sealed) | Change of chemical purity during storage (in words) [1, 9] | Crystalline form after storage ([1]; 25 °C/60% RH, open, 6 months) | Crystalline form after storage [1, 10] | Time for which the crystalline form is stable (does not change) ([1]; 40 °C/75% RH, open and sealed) | Change of chemical purity during storage (in words) [1, 11] | Crystalline form after storage ([1]; 40 °C/75% RH, open, 6 months) | Crystalline form after storage [1, 12] | Compressibility / behaviour during tablet pressing (in words) [3] | Diameter [3] [mm] | Hardness [3] [kgf] | Thickness [3] [mm] | Tensile strength [3] [MPa] | Average amount of material sticking to the punch [4, 13] [mg] | Maximum amount of material sticking to the punch [4, 13] [mg] | Adhesiveness (in words) [4] | further results
1 | [2H]C([2H])([2H])NC(=O)c1nnc(NC(=O)C2CC2)cc1Nc1cccc(-c2ncn(C)n2)c1OC [Form CSII, 6-(cyclopropanecarboxamido)-4-((2-methoxy-3-(1-methyl-1H-1,2,4-triazol-3-yl)phenyl)amino)-N-(methyl-d3)pyridazine-3-carboxamide] | at least 6 months | remains substantially unchanged | Form CSII | Form CSII | at least 6 months | remains substantially unchanged | Form CSII | Form CSII | better compressibility compared with Form A | 6.08 | 4.24 | 2.30 | 1.89 | 0.06 | 0.06 | superior to that of Form A | Crystalline state after grinding [2]: does not change; also recorded: doesn't change; Crystalline state after tableting ([5]; tablets compressed under 5 kN, 10 kN and 20 kN): does not change
2 | [2H]C([2H])([2H])NC(=O)c1nnc(NC(=O)C2CC2)cc1Nc1cccc(-c2ncn(C)n2)c1OC [BMS-986165, 6-(cyclopropanecarboxamido)-4-((2-methoxy-3-(1-methyl-1H-1,2,4-triazol-3-yl)phenyl)amino)-N-(methyl-d3)pyridazine-3-carboxamide] |  |  |  |  |  |  |  |  |  |  |  |  |  |  |  |  | Therapeutic effect [6]: good therapeutic effects; Clinical effect [7]: positive clinical effects
3 | [2H]C([2H])([2H])NC(=O)c1nnc(NC(=O)C2CC2)cc1Nc1cccc(-c2ncn(C)n2)c1OC [Form A, 6-(cyclopropanecarboxamido)-4-((2-methoxy-3-(1-methyl-1H-1,2,4-triazol-3-yl)phenyl)amino)-N-(methyl-d3)pyridazine-3-carboxamide, reference compound] |  |  |  |  |  |  |  |  | poor compressibility; also recorded: splintering |  |  |  |  | 0.190 | 0.260 | high adhesiveness | Adhesion quantity of Form A relative to that of Form CSII [4, 13]: 3.2 times
4 | [2H]C([2H])([2H])NC(=O)c1nnc(NC(=O)C2CC2)cc1Nc1cccc(-c2ncn(C)n2)c1OC [Form CSI, 6-(cyclopropanecarboxamido)-4-((2-methoxy-3-(1-methyl-1H-1,2,4-triazol-3-yl)phenyl)amino)-N-(methyl-d3)pyridazine-3-carboxamide] | at least 6 months | remains substantially unchanged | CSI | CSI | at least 6 months | remains substantially unchanged | CSI | CSI | better compressibility compared with Form A | 6.06 | 7.87 | 2.39 | 3.39 | 0.105 | 0.130 | superior to that of Form A | Chemical purity during storage [1, 9]: above 98.0%; Purity ([1]; 25 °C/60% RH, open, 6 months): 98.76%; Purity ([1]; 25 °C/60% RH, sealed, 6 months): 98.79%; Purity ([1]; 40 °C/75% RH, open, 6 months): 98.74%; Purity ([1]; 40 °C/75% RH, sealed, 6 months): 98.73%; Purity ([1]; initial): 98.13%; Crystalline form of solid after stirring time 5 minutes ([8]; mixture of Form A and about 6 mg Form CSI suspended in 0.3 mL water/acetonitrile, water/methanol or water/acetone (samples 1-7), 5 minutes, XRPD): Form A +; Crystalline form of solid after stirring time 6 days ([8]; mixture of Form A and about 6 mg Form CSI suspended in 0.3 mL water/acetonitrile, water/methanol or water/acetone (samples 1-7), 6 days, XRPD): CSI; Stability relative to Form A (in words) ([8]; water/acetonitrile, water/methanol or water/acetone): better stability than Form A; Crystalline state after tableting ([5]; tablets compressed under 3 kN, 7 kN and 14 kN): does not change; also recorded: doesn't change
